Data reported in the supplement of paper PMC13380429.

Tests used:
Conditions in all cases: 72 h
[1] = system: Calu-3; experiment: relative viability EC50 (midpoint between 100% and the lowest measured viability); higher = less toxic
[2] = system: Vero E6; experiment: as above
[3] = system: U2OS; experiment: as above
[4] = system: HepG2; experiment: as above
[5] = system: Caco-2; experiment: as above
[6] = system: Calu-3; experiment: drug sensitivity score (DSS) for viability; higher = more toxic; extreme values may be limits of the assay
[7] = system: Vero E6; experiment: as above
[8] = system: U2OS; experiment: as above
[9] = system: HepG2; experiment: as above
[10] = system: Caco-2; experiment: as above
[11] = system: Calu-3; experiment: cell viability relative to DMSO; higher = less toxic
[12] = system: Vero E6; experiment: as above
[13] = system: U2OS; experiment: as above
[14] = system: HepG2; experiment: as above
[15] = system: Caco-2; experiment: as above

SMILES	relative viability EC50 [1] [µM]	relative viability EC50 [2] [µM]	relative viability EC50 [3] [µM]	relative viability EC50 [4] [µM]	relative viability EC50 [5] [µM]	drug sensitivity score [6]	drug sensitivity score [7]	drug sensitivity score [8]	drug sensitivity score [9]	drug sensitivity score [10]	cell viability ([11]; 1 nM) [%]	cell viability ([11]; 10 nM) [%]	cell viability ([11]; 100 nM) [%]	cell viability ([11]; 1000 nM) [%]	cell viability ([11]; 10000 nM) [%]	cell viability ([12]; 1 nM) [%]	cell viability ([12]; 10 nM) [%]	cell viability ([12]; 100 nM) [%]	cell viability ([12]; 1000 nM) [%]	cell viability ([12]; 10000 nM) [%]	cell viability ([13]; 1 nM) [%]	cell viability ([13]; 10 nM) [%]	cell viability ([13]; 100 nM) [%]	cell viability ([13]; 1000 nM) [%]	cell viability ([13]; 10000 nM) [%]	cell viability ([14]; 1 nM) [%]	cell viability ([14]; 10 nM) [%]	cell viability ([14]; 100 nM) [%]	cell viability ([14]; 1000 nM) [%]	cell viability ([14]; 10000 nM) [%]	cell viability ([15]; 1 nM) [%]	cell viability ([15]; 10 nM) [%]	cell viability ([15]; 100 nM) [%]	cell viability ([15]; 1000 nM) [%]	cell viability ([15]; 10000 nM) [%]
CCOC(=O)NNc1nncc2ccccc12 [todralazine]	> 10	> 10	> 10	> 10	> 10	0	0	0	0	0	84.4	109	101	110	103	101	88.3	97.3	91.5	99.4	98.6	100	97.1	102	105	79.3	97.3	125	112	97.3	90.4	111	84.2	94.4	117
O[C@@H]1CO[C@H]2[C@@H]1OC[C@@H]2O [isosorbide]	> 10	> 10	> 10	> 10	> 10	0	0	0	0	0	97.3	97.6	106	101	111	96.7	100	97.5	92.9	99.8	96.8	98.9	95	98.8	94.4	93.4	92.5	106	99.6	105	94.8	93.7	91.4	102	99.8
C[C@@H](CCCCC(=O)Nc1ccc(C(F)(F)F)cc1)NCCc1c[nH]cn1 [HTMT]	> 10	> 10	> 10	> 10	> 10	0	0	0	0	0	100	97.8	100	106	100	98.3	94.7	98	100	108	99.9	100	96.9	101	106	110	95.6	104	104	98	97.2	92.8	87	99.4	94.1
COC(=O)c1cnn(-c2ccc(F)cc2F)c1/C=N/NC(=S)NC(C)(C)C	> 10	> 10	> 10	> 10	> 10	0.3	0	0	0	0	101	101	97.4	89.1	89.6	106	101	95.9	96.1	98.8	98.6	98.3	104	98	103	112	107	98.4	94.3	105	102	90.6	102	105	93.9
O=C(O)c1ccc(N[C@@H]2O[C@H](CO)[C@@H](O)[C@H](O)[C@@H]2O)cc1 [K-MAP]	> 10	> 10	> 10	> 10	> 10	0	0	0	0	0	117	99.5	105	102	99	94.7	96.7	93.2	98.8	109	99.7	95.4	100	97.7	100	90.8	98.1	95.4	97.1	97.5	92.7	93.3	89.5	91	95.8
c1cc2c3c(c1)c1c(n3CCNC2)CCCC1 [WAY-629]	> 10	> 10	> 10	> 10	> 10	0.1	0	0	0	0	110	83.8	104	106	85.7	100	99.7	102	98.8	92.4	101	100	95.3	93	95.9	88.5	95.4	81.1	93	90.9	113	90.6	100	90	97.1
CCc1cccc2c3c([nH]c12)C(CC)(CC(=O)O)OCC3 (stereo not given) [etodolac]	> 10	> 10	> 10	> 10	> 10	0	0	0	0	0	98	107	98.7	91.9	106	91.7	98.8	93.7	105	95.2	95.7	103	96.2	104	93.4	105	107	96.3	94.4	99.1	86.2	99.4	82.7	86.9	87.9
